Source: patent publication US7507739B2, “6-[(substituted)phenyl]triazolopyrimidines as anticancer agents” (Wyeth, priority 2003, dated 2009)
pIC50: −log10 of the molar value.

Experiments:
HeLa cells = experiment: Cell cycle analysis with HeLa cells; type: cell-based, human; conditions: 18 hr
Protocol: HeLa cells are harvested by trypsinization, washed, counted and distributed to wells of 12-well plates at 125,000 cells per well in 2 mL medium. Cells are cultured overnight. […] Cells are continued in culture for 18 hr after compound addition, then cells in each well are harvested (taking care to recover both adherent and non-adherent cells) and processed using the CycleTEST PLUS kit (Becton Dickinson Immunocytometry Systems, San Jose, Calif.). Flow cytometry is done with a FACSort instrument (Becton Dickinson).
This procedure measures the percentages of cells in a population that are in the G1, S, and G2/M phases of the cell cycle. It utilizes staining of cell nuclei with propidium iodide and analysis by flow cytometry.

pure tubulin = experiment: Tubulin polymerization test with pure tubulin without GTP; type: biochemical, bovine; conditions: no GTP
Protocol: Medium is RPMI-1640 with L-glutamine, supplemented with 10% heat-inactivated fetal calf serum, 100 units/ml penicillin, and 100 μg/ml streptomycin (Gibco, Grand Island, N.Y.). Microtubule-associated protein (MAP)-rich tubulin, containing about 70% tubulin and 30% MAPs (#ML113), and highly purified tubulin (>99% pure, #TL238), both from bovine brain, are obtained from Cytoskeleton, Inc., Denver, Colo. PEM buffer (80 mM piperazine-N,N′-bis[2-ethanesulfonic acid], pH 6.9, 1 mM ethylene glycol-bis(β-aminoethyl ether)-N,N,N′,N′-tetraacetic acid, 1 mM magnesium chloride) and guanosine 5′-triphosphate (GTP) are also obtained from Cytoskeleton. [3H]paclitaxel, specific activity 14.7 Ci/mmol, is purchased from Moravek Biochemicals (Brea, Calif.). [^3H]vinblastine, specific activity 9.60 Ci/mmol and MicroSpin G-50 columns are obtained from Amersham Biosciences (Piscataway, N.J.). […] Other reagents are obtained from Sigma (St. Louis, Mo.).
Two variations of this procedure are done, one using MAP-rich tubulin and one using pure tubulin.
The procedure with pure tubulin is similar except for the following changes. […] The supernatant after centrifugation is dispensed to a 96-well plate already containing compounds. Each compound is tested in duplicate at six serial 3-fold dilutions starting at 24.3 μM. The plate reader is thermostated at 35°.

COLO 205 cells = experiment: MTS cytotoxicity test with COLO 205 cells; type: cell-based, human; conditions: Homo sapiens, COLO 205, 72 h, 3 days
Protocol: The assay, which is sold in kit form by Promega (Madison, Wis.; CellTiter 96 AQueous Non-Radioactive Cell Proliferation Assay), is based on the conversion by viable cells, but not by dead cells, of the tetrazolium salt, MTS (3-(4,5-dimethylthiazol-2-yl)-5-(3-carboxymethoxyphenyl)-2-(4-sulphophenyl)-2H-tetrazolium, inner salt), into a water-soluble colored formazan which is detected by spectrophotometry. Compounds are tested at nine concentrations, in order to determine IC50 values. For the test procedure, cells are harvested by trypsinization (or, in the case of non-adherent cells, by simple resuspension), washed, counted and distributed to wells of 96-well flat-bottom microtiter plates at 1000 cells per well in 200 μL of medium. In addition, one row of wells on a separate plate received cells as above (“time 0” plate). All plates are incubated at 37° in humidified 5% CO2 in air for about 24 hr.
On day 2, compounds for test are diluted and added to wells. Compounds are dissolved in DMSO at 10 mg/mL. For each compound, nine serial 2-fold dilutions are prepared in DMSO. Ten μL of each dilution in DMSO is transferred to 100 μL of medium, mixed well, and then 5 μL of this dilution is transferred in quadruplicate to wells containing cells. The final high concentration of each compound is typically 5 μM. Plates are returned to the incubator for three days. At the time of drug addition to the experimental plates, the MTS assay is run on the “time 0” plate. This produced the “time 0 MTS value” which is related to the number of viable cells per well at the time of drug addition.
After three days of culture with test compounds (day 5 overall), the MTS assay is done on all wells of the experimental plates. The absorbance values of the quadruplicate sample wells are averaged and divided by the average of the “time 0” values. The average of control wells without drug, divided by the average “time 0” value, gave the maximal relative increase in MTS color yield due to cell growth during the final three days of culture. The average of control wells with high drug concentration, divided by the “time 0” value, gave the minimal relative color yield for cells that are completely killed. The nine values for each compound are plotted against concentration, and the concentration that produced a relative color yield half way between the maximum and minimum is taken as the IC50 value.
COLO 205 is a human colon carcinoma cell line that is used for comparative testing of the examples of this invention and several reference compounds. This line is sensitive to paclitaxel and vincristine.

SMILES: COc1cc2c(c(OC)c1OC)-c1ccc(OC)c(=O)cc1[C@@H](NC(C)=O)CC2 [Colchicine, reference compound]
- Percent in Cell Cycle Phase >4N (HeLa cells; 5 nM): 2%
- Percent in Cell Cycle Phase Apop (HeLa cells; 5 nM): 6%
- Percent in Cell Cycle Phase G1 (HeLa cells; 5 nM): 60%
- Percent in Cell Cycle Phase G2/M (HeLa cells; 5 nM): 16%
- Percent in Cell Cycle Phase S (HeLa cells; 5 nM): 17%
- Percent in Cell Cycle Phase >4N (HeLa cells; 10 nM): 2%
- Percent in Cell Cycle Phase Apop (HeLa cells; 10 nM): 7%
- Percent in Cell Cycle Phase G1 (HeLa cells; 10 nM): 59%
- Percent in Cell Cycle Phase S (HeLa cells; 10 nM): 16%
- Percent in Cell Cycle Phase >4N (HeLa cells; 15 nM): 2%
- Percent in Cell Cycle Phase Apop (HeLa cells; 15 nM): 9%
- Percent in Cell Cycle Phase G1 (HeLa cells; 15 nM): 50%
- Percent in Cell Cycle Phase G2/M (HeLa cells; 15 nM): 23%
- Percent in Cell Cycle Phase S (HeLa cells; 15 nM): 17%
- Percent in Cell Cycle Phase >4N (HeLa cells; 17.5 nM): 2%
- Percent in Cell Cycle Phase Apop (HeLa cells; 17.5 nM): 9%
- Percent in Cell Cycle Phase G1 (HeLa cells; 17.5 nM): 51%
- Percent in Cell Cycle Phase G2/M (HeLa cells; 17.5 nM): 21%
- Percent in Cell Cycle Phase >4N (HeLa cells; 20 nM): 2%
- Percent in Cell Cycle Phase Apop (HeLa cells; 20 nM): 13%
- Percent in Cell Cycle Phase G1 (HeLa cells; 20 nM): 40%
- Percent in Cell Cycle Phase G2/M (HeLa cells; 20 nM): 28%
- Percent in Cell Cycle Phase >4N (HeLa cells; 25 nM): 3%
- Percent in Cell Cycle Phase Apop (HeLa cells; 25 nM): 14%
- Percent in Cell Cycle Phase G1 (HeLa cells; 25 nM): 36%
- Percent in Cell Cycle Phase G2/M (HeLa cells; 25 nM): 27%
- Percent in Cell Cycle Phase S (HeLa cells; 25 nM): 20%
- Percent in Cell Cycle Phase >4N (HeLa cells; 30 nM): 3%
- Percent in Cell Cycle Phase Apop (HeLa cells; 30 nM): 14%
- Percent in Cell Cycle Phase G1 (HeLa cells; 30 nM): 27%
- Percent in Cell Cycle Phase G2/M (HeLa cells; 30 nM): 36%
- Percent in Cell Cycle Phase S (HeLa cells; 30 nM): 20%
- Percent in Cell Cycle Phase >4N (HeLa cells; 40 nM): 4%
- Percent in Cell Cycle Phase Apop (HeLa cells; 40 nM): 11%
- Percent in Cell Cycle Phase G1 (HeLa cells; 40 nM): 16%
- Percent in Cell Cycle Phase G2/M (HeLa cells; 40 nM): 48%
- Percent in Cell Cycle Phase S (HeLa cells; 40 nM): 22%
- Percent in Cell Cycle Phase >4N (HeLa cells; 50 nM): 4%
- Percent in Cell Cycle Phase Apop (HeLa cells; 50 nM): 11%
- Percent in Cell Cycle Phase G1 (HeLa cells; 50 nM): 11%
- Percent in Cell Cycle Phase G2/M (HeLa cells; 50 nM): 56%
- Percent in Cell Cycle Phase >4N (HeLa cells; 100 nM): 3%
- Percent in Cell Cycle Phase Apop (HeLa cells; 100 nM): 15%
- Percent in Cell Cycle Phase G1 (HeLa cells; 100 nM): 11%
- Percent in Cell Cycle Phase G2/M (HeLa cells; 100 nM): 55%
- Percent in Cell Cycle Phase S (HeLa cells; 100 nM): 16%

SMILES: CC(=O)O[C@@]12CO[C@@H]1C[C@H](O)[C@@]1(C)C(=O)[C@H](O)C3=C(C)[C@@H](OC(=O)[C@H](O)[C@@H](NC(=O)OC(C)(C)C)c4ccccc4)C[C@@](O)([C@@H](OC(=O)c4ccccc4)[C@H]21)C3(C)C [Docetaxel, reference compound]
- absorbance increase, polymerization of pure tubulin (pure tubulin; 0.1 μM): small increase in absorbance
- A340 at 0 min (pure tubulin; 24.3 μM): 0
- A340 at 5 min (pure tubulin; 24.3 μM): 0.20
- A340 at 10 min (pure tubulin; 24.3 μM): 0.20
- A340 at 15 min (pure tubulin; 24.3 μM): 0.20
- A340 at 20 min (pure tubulin; 24.3 μM): 0.20
- absorbance increase, polymerization of pure tubulin (pure tubulin; 24.3 μM, first 5 min): rapid increase in absorbance
- Percent in Cell Cycle Phase >4N (HeLa cells; 0.25 nM): 2%
- Percent in Cell Cycle Phase Apop (HeLa cells; 0.25 nM): 8%
- Percent in Cell Cycle Phase G1 (HeLa cells; 0.25 nM): 58%
- Percent in Cell Cycle Phase G2/M (HeLa cells; 0.25 nM): 16%
- Percent in Cell Cycle Phase S (HeLa cells; 0.25 nM): 17%
- Percent in Cell Cycle Phase >4N (HeLa cells; 0.5 nM): 2%
- Percent in Cell Cycle Phase Apop (HeLa cells; 0.5 nM): 19%
- Percent in Cell Cycle Phase G1 (HeLa cells; 0.5 nM): 48%
- Percent in Cell Cycle Phase G2/M (HeLa cells; 0.5 nM): 14%
- Percent in Cell Cycle Phase S (HeLa cells; 0.5 nM): 18%
- Percent in Cell Cycle Phase >4N (HeLa cells; 1 nM): 2%
- Percent in Cell Cycle Phase Apop (HeLa cells; 1 nM): 35%
- Percent in Cell Cycle Phase G1 (HeLa cells; 1 nM): 35%
- Percent in Cell Cycle Phase G2/M (HeLa cells; 1 nM): 14%
- Percent in Cell Cycle Phase S (HeLa cells; 1 nM): 15%
- Percent in Cell Cycle Phase >4N (HeLa cells; 2 nM): 2%
- Percent in Cell Cycle Phase Apop (HeLa cells; 2 nM): 48%
- Percent in Cell Cycle Phase G1 (HeLa cells; 2 nM): 19%
- Percent in Cell Cycle Phase G2/M (HeLa cells; 2 nM): 14%
- Percent in Cell Cycle Phase S (HeLa cells; 2 nM): 18%
- Percent in Cell Cycle Phase >4N (HeLa cells; 3 nM): 2%
- Percent in Cell Cycle Phase Apop (HeLa cells; 3 nM): 52%
- Percent in Cell Cycle Phase G1 (HeLa cells; 3 nM): 15%
- Percent in Cell Cycle Phase G2/M (HeLa cells; 3 nM): 14%
- Percent in Cell Cycle Phase S (HeLa cells; 3 nM): 17%
- Percent in Cell Cycle Phase >4N (HeLa cells; 4 nM): 2%
- Percent in Cell Cycle Phase Apop (HeLa cells; 4 nM): 49%
- Percent in Cell Cycle Phase G1 (HeLa cells; 4 nM): 12%
- Percent in Cell Cycle Phase G2/M (HeLa cells; 4 nM): 22%
- Percent in Cell Cycle Phase S (HeLa cells; 4 nM): 16%
- Percent in Cell Cycle Phase >4N (HeLa cells; 5 nM): 3%
- Percent in Cell Cycle Phase Apop (HeLa cells; 5 nM): 42%
- Percent in Cell Cycle Phase G1 (HeLa cells; 5 nM): 9%
- Percent in Cell Cycle Phase G2/M (HeLa cells; 5 nM): 31%
- Percent in Cell Cycle Phase S (HeLa cells; 5 nM): 17%
- Percent in Cell Cycle Phase >4N (HeLa cells; 6 nM): 4%
- Percent in Cell Cycle Phase Apop (HeLa cells; 6 nM): 37%
- Percent in Cell Cycle Phase G1 (HeLa cells; 6 nM): 10%
- Percent in Cell Cycle Phase G2/M (HeLa cells; 6 nM): 33%
- Percent in Cell Cycle Phase S (HeLa cells; 6 nM): 17%
- Percent in Cell Cycle Phase >4N (HeLa cells; 8 nM): 4%
- Percent in Cell Cycle Phase Apop (HeLa cells; 8 nM): 29%
- Percent in Cell Cycle Phase G1 (HeLa cells; 8 nM): 7%
- Percent in Cell Cycle Phase G2/M (HeLa cells; 8 nM): 48%
- Percent in Cell Cycle Phase S (HeLa cells; 8 nM): 11%
- Percent in Cell Cycle Phase >4N (HeLa cells; 10 nM): 4%
- Percent in Cell Cycle Phase Apop (HeLa cells; 10 nM): 35%
- Percent in Cell Cycle Phase G1 (HeLa cells; 10 nM): 9%
- Percent in Cell Cycle Phase G2/M (HeLa cells; 10 nM): 37%
- Percent in Cell Cycle Phase S (HeLa cells; 10 nM): 16%
- Percent in Cell Cycle Phase >4N (HeLa cells; 20 nM): 3%
- Percent in Cell Cycle Phase Apop (HeLa cells; 20 nM): 38%
- Percent in Cell Cycle Phase G1 (HeLa cells; 20 nM): 8%
- Percent in Cell Cycle Phase G2/M (HeLa cells; 20 nM): 40%
- Percent in Cell Cycle Phase S (HeLa cells; 20 nM): 12%

SMILES: C[C@H](Nc1c(-c2c(F)cc(OCCCN)cc2F)c(Cl)nc2ncnn12)C(F)(F)F [Example 5, 6-[4-(3-Aminopropoxy)-2,6-difluorophenyl]-5-chloro-N-[(1S)-2,2,2-trifluoro-1-methylethyl][1,2,4]triazolo[1,5-a]pyrimidin-7-amine]
- pIC50 (COLO 205 cells): 6.34

SMILES: C[C@H](Nc1c(-c2c(F)cc(OCCCN3CCOCC3)cc2F)c(Cl)nc2ncnn12)C(F)(F)F [Example 11, 5-Chloro-6-[2,6-difluoro-4-(3-morpholin-4-ylpropoxy)phenyl]-N-[(1S)-2,2,2-trifluoro-1-methylethyl][1,2,4]triazolo[1,5-a]pyrimidin-7-amine]
- pIC50 (COLO 205 cells): 7.05
